Target: T1, RSp0980 (Ralstonia pseudosolanacearum, UniProt Q8XR79)
T1 construct: gene narL
Test: biochemical

T1 sequence (Q8XR79 1-222): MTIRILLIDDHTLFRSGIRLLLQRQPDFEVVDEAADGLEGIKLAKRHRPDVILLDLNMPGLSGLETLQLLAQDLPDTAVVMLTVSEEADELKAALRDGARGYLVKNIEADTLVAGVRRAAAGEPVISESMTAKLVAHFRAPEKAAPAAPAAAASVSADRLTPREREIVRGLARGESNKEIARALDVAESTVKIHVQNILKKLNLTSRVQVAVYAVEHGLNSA

Q: `Nc1nc2c(ncn2[C@@H]2O[C@@H]3COP(=O)(O)O[C@@H]4[C@H](O)[C@@H](COP(=O)(O)O[C@H]3[C@H]2O)O[C@H]4n2cnc3c(=O)[nH]c(N)nc32)c(=O)[nH]1` [2′,3′-c-di-GMP] was tested. Which Kd did it give?
A: 126 ± 1.12 µM

Q: `Nc1ncnc2c1ncn2[C@@H]1O[C@H](CO)[C@H]2OP(=O)(O)O[C@H]21` [2′,3′-cAMP] was tested. Which Kd did it give?
A: 82 ± 0.93 µM

Q: With `Nc1nc2c(ncn2[C@@H]2O[C@@H]3CO[P@](=O)(O)O[C@H]4[C@@H](O)[C@H](n5cnc6c(=O)[nH]c(N)nc65)O[C@@H]4CO[P@](=O)(O)O[C@H]3[C@H]2O)c(=O)[nH]1` [bis-3′,5′-c-di-GMP] as the compound, how does the Kd read?
A: 130.4 ± 1.3 µM
